The values that follow are results of earlier work, collected in patent US20250312371A1, “CROSS-LINKED POLYMERIC CHELATORS COMPOSITIONS AND USE THEREOF” (THE UNIVERSITY OF KANSAS, priority 2021, published 2025).

The structures appear in SMILES notation.

With `O=C(N[C@H]1COC(=O)[C@@H](NC(=O)c2cccc(O)c2O)COC(=O)[C@@H](NC(=O)c2cccc(O)c2O)COC1=O)c1cccc(O)c1O` [Enterobactin], where the note is “Fe(III)”, the “relative iron binding constant” value was 35.5. The “Log K” value (iron chelation) was 52.
